Literature values as cited in PMC10352257, “In vivo effects of the alpha-synuclein misfolding inhibitor minzasolmin supports clinical development in Parkinson’s disease” (NPJ Parkinson's Disease, 2023).

System: Line 61 transgenic mice
Design: method as in PMID 28585223
Conditions: cited from earlier work

In the case of CLR01, the “effect on gait deficits of Line 61 transgenic mice in round beam traversal test” value is listed as “improved”.
